Experimental data taken from patent US10479752B2, “Deuterated tetramethyl dioic acids, compositions comprising them and uses thereof” (SYNDROMEX LTD., priority 2011, dated 2019).
Marks after values point to notes of the source that are not given here.

Experiments:
[1] = Comparative oral bioavailability / pharmacokinetic study, single intravenous and oral administration; format: in vivo; conditions: rat; for C0 / t1/2 / AUCinf / Cmax / tmax: Mean CV (%); for F (oral bioavailability): 50 mg/kg po vs 5 mg/kg iv, Mean (CV %)
Description: The pharmacokinetic properties and the oral bioavailability were investigated for the following comparative compounds:
The plasma concentrations of the test items were measured by LC/MS/MS method following single intravenous and oral administration at the doses of 5 mg/kg body weight and 50 mg/kg body weight, respectively. Following intravenous administration small inter-individual variability was observed. Following i.v administration, the highest plasma concentrations were measured at the first sampling time-point (5 minutes) followed by a biphasic continuous decrease. […] The peak concentrations, tmax and the apparent terminal elimination half-lives (t1/2) were the followings:
The vehicle for oral administration was prepared in advance. Preparation: 1 g of carboxymethylcellulose sodium salt was dissolved in 100 ml of Humaqua. The vehicle was prepared at least 2 days prior to formulation of the test items. The vehicle was stored in a refrigerator when not in use.
The required amount of test item was weighed on an analytical balance, transferred into a suitable vial. The test item was dissolved in the required volume of N,N-dimethylacetamide (40% of the final volume). Dissolution of the test item was facilitated by gentle mixing by vortex. The solution was diluted with the suitable volume of PEG400 (40% of the final volume) then Salsol A (20% of the final volume). The final concentration of the test item in the solution was 5 mg/ml. The formulations were prepared freshly on the day of administration.
The required amount of test item was weighed on an analytical balance, transferred into a test tube and mixed with the suitable volume of 1% CMC to achieve the final concentration of 25 mg/ml. The suspension was sonicated twice in bath sonicator for 30 min at 40 C (each round), and left overnight at room temperature. On the following day, the suspension was sonicated again (bath sonicator, 30 min, 40° C.) and further homogenized in a glass/glass homogenizer trying to reaching an homogenous suspension. In spite of the above procedure the quality (homogeneity) of the suspension was not perfect. The suspension was stored at room temperature till administration.
Species/Strain rat/Wistar (Crl:(WI)BR rats)
Number of animals: 24 males (at least 32 for cannulation*)
After the acclimatization period, rats were equipped with a jugular vein cannula under isoflurane anesthesia. The following day the animals were used for the study. In the morning the rats were checked for health status and blood sampling before assigning them into the experimental group.
The terminal elimination phase was defined on the basis of the last 3-5 measured concentration except rat A4. […] The central volume of distribution (Vc: […]) was approximately equal to the total blood volume. The volume of distribution estimated for the steady state situation (Vss: 97.3-143 ml/kg) remained also small compared to the total extracellular fluid volume (˜300 ml/kg). The clearance was also very small for all experimental compound analogues. The smallest clearance was obtained for Compound 7: 23.2 ml/h/kg.

[2] = Chemical and isotopic stability as solutions in DMSO/phosphate buffered saline over 48 hours; conditions: for chemical purity (HPLC area percent) with respect to related substances: all samples through the study; for analyte recovered, yield: summary over the study; for disenrichment of the product (isotopic stability): throughout the time period of the study
Description: A 1 mg/mL stock solution (˜55 mL) of deuterated compound in DMSO was prepared. A measured volume of stock (7.5 mL) was dispensed in to each of seven vials. To each vial was added a measured volume of PBS (aq) (3.0 mL), and each vial was agitated to mix. The vials were then placed in a thermostatically-controlled oven set to 37° C. At each time-point (0 h, 2 h, 4 h, 24 h, 48 h) a vial was drawn from the oven. To the vial was added MTBE (9.0 mL), and the mixture was stirred vigorously for 5 min. The layers were separated, and the MTBE layer was agitated with DI water (3.75 mL) for 1 min. The layers were separated. The MTBE layer was dried with MgSO4 for >1 h, and then filtered through a PTFE syringe filter into a tared vial. The solution was concentrated in vacuo to a solid residue, and the mass of the residue was calculated and recorded. To the residue a measured volume of MeOH was added to make (theoretically) a 2.5 mg/mL solution. In this case, 3.00 mL MeOH was added to each vial which theoretically contained 7.5 mg of compound. The content of each solution was measured by quantitative HPLC analysis (by comparison to a standard of known concentration). The MeOH solutions were then recovered, concentrated in vacuo to a solid, and then analyzed by GCMS to determine isotopic enrichment as the methyl ester derivatives.

[3] = DMSO/PBS solution, 37° C., 24 h
[4] = DMSO/PBS solution, 37° C., 48 h
[5] = DMSO/PBS solution, 37° C., 96 h
[6] = Original Sample (before the stability study)

| SMILES | GC/MS IE (isotopic enrichment) ([2]; DMSO/PBS solution, 37° C., 0 h) | HPLC Area Percentage ([2]; DMSO/PBS solution, 37° C., 0 h) | HPLC Assay ([2]; DMSO/PBS solution, 37° C., 0 h) | GC/MS IE (isotopic enrichment) ([2]; DMSO/PBS solution, 37° C., 2 h) | HPLC Area Percentage ([2]; DMSO/PBS solution, 37° C., 2 h) | HPLC Assay ([2]; DMSO/PBS solution, 37° C., 2 h) | GC/MS IE (isotopic enrichment) ([2]; DMSO/PBS solution, 37° C., 4 h) | HPLC Area Percentage ([2]; DMSO/PBS solution, 37° C., 4 h) | HPLC Assay ([2]; DMSO/PBS solution, 37° C., 4 h) | GC/MS IE (isotopic enrichment) [2, 3] | HPLC Area Percentage [2, 3] | HPLC Assay [2, 3] | GC/MS IE (isotopic enrichment) [2, 4] | HPLC Area Percentage [2, 4] | analyte recovered, yield ([2]; DMSO/PBS solution, 37° C.) | HPLC Area Percentage [2, 6] | HPLC Assay [2, 4] | disenrichment of the product (isotopic stability) ([2]; DMSO/PBS solution, 37° C.) | other results |
| --- | --- | --- | --- | --- | --- | --- | --- | --- | --- | --- | --- | --- | --- | --- | --- | --- | --- | --- | --- |
| CC(C)(CCCCCCCCCCC(C)(C)CC(=O)O)CC(=O)O [Compound 1″, reference compound] |  |  |  |  |  |  |  |  |  |  |  |  |  |  |  |  |  |  | C0 ([1]; 5 mg/kg iv dose): 56.1 (6.2%) μg/ml; t1/2 ([1]; 5 mg/kg iv dose): 2.68 (6.0%) h; AUCinf ([1]; 5 mg/kg iv): 124 (23.6%) h * μg/ml; Cmax ([1]; 50 mg/kg po dose): 103 (24.2%) μg/ml; t1/2 ([1]; 50 mg/kg po dose): 2.43 (57.6%) h; tmax ([1]; 50 mg/kg po dose): 3.5 (79.5%) h; F (oral bioavailability) [1]: 69.6 (29.4) %; AUCinf ([1]; 50 mg/kg po): 863 (29.4%) h * μg/ml |
| [2H]C([2H])(C(=O)O)C(C)(C)CCCCCCCCCCC(C)(C)C([2H])([2H])C(=O)O [Compound 2, 3,3,14,14-Tetramethyl-1,16-[2-D2,15-D2]hexadecanediol acid] | 97.9% | 94.9% | 67.4% | 98.0% | 95.5% | 65.1% | 98.0% | 95.4% | 62.4% | 98.0% | 95.2% | 86.0% | 98.0% | 96.0% | approximately 90% | 97.0% |  |  | GC/MS IE (isotopic enrichment) [2, 5]: 98.0%; HPLC Area Percentage [2, 5]: 96.1%; HPLC Assay [2, 5]: 76.8%; chemical purity (HPLC area percent) with respect to related substances ([2]; DMSO/PBS solution, 37° C.): around 96% |
| [2H]C([2H])([2H])C(CCCCCCCCCCC(CC(=O)O)(C([2H])([2H])[2H])C([2H])([2H])[2H])(CC(=O)O)C([2H])([2H])[2H] [Compound 3, 3,3,14,14-[D12]Tetramethyl-1,16-hexadecanedoic acid] | 99.9% | 98.0% | 33.3% | 99.9% | 98.8% | 38.4% | 99.9% | 98.4% | 32.4% | 99.9% | 98.6% | 46.0% | 99.9% | 98.5% | about 95% | 100.0% | 50.2% | No disenrichment |  |
| [2H]C([2H])([2H])C(CCCCCCCCCCCCC(C([2H])([2H])[2H])(C([2H])([2H])[2H])C([2H])([2H])C(=O)O)(C([2H])([2H])[2H])C([2H])([2H])C(=O)O [Compound 4, 3,3,16,16-[D16]Tetramethyl-1,18-octadecanedioic acid] | 98.6% | 97.2% | 70.9% | 98.4% | 97.8% | 65.9% | 98.4% | 97.5% | 53.8% | 98.4% | 96.5% | 93.8% | 98.3% | 97.5% |  | 99.2% | 77.6% |  | stability results overall, in words ([2]; DMSO/PBS solution, 37° C., 48 h study): essentially the same as those for Compound 1; GC/MS IE (isotopic enrichment) [2, 6]: 98.3% |
| [2H]C([2H])(C(=O)O)C(C)(C)CCCCCCCCCCCCC(C)(C)C([2H])([2H])C(=O)O [Compound 5, 3,3,16,16-tetramethyl-1,18-[2-D2,17-D2]octadecanedioic acid] | 96.3% | 98.4% | 57.0% | 95.9% | 98.0% | 44.6% | 96.0% | 98.5% | 46.3% | 96.0% | 98.4% | 95.3% | 95.5% | 98.0% | about 95% | 100.0% | 213.8%* | No disenrichment | GC/MS IE (isotopic enrichment) [2, 5]: 96.1%; HPLC Area Percentage [2, 5]: 98.7%; HPLC Assay [2, 5]: 79.8% |
| [2H]C([2H])([2H])C(CCCCCCCCCCCCC(CC(=O)O)(C([2H])([2H])[2H])C([2H])([2H])[2H])(CC(=O)O)C([2H])([2H])[2H] [Compound 6, 3,3,16,16-[D12]Tetramethyl-1,18-octadecanedioic acid] | 99.2% | 98.4% | 39.0% | 99.0% | 98.6% | 33.1% | 99.1% | 97.9% | 35.6% | 99.0% | 98.5% | 39.8% | 99.1% | 98.7% | about 95% | 100.0% | 59.6% | No disenrichment |  |
| CC(C)(CCCCCCCCCCCCC(C)(C)C(=O)O)C(=O)O [Compound 7″, reference compound] |  |  |  |  |  |  |  |  |  |  |  |  |  |  |  |  |  |  | C0 ([1]; 5 mg/kg iv dose): 74.6 (6.9%) μg/ml; t1/2 ([1]; 5 mg/kg iv dose): 2.18 (19.1%) h; AUCinf ([1]; 5 mg/kg iv): 128 (13.4%) h * μg/ml; Cmax ([1]; 50 mg/kg po dose): 143 (41.3%) μg/ml; t1/2 ([1]; 50 mg/kg po dose): 2.22 (9.9%) h; tmax ([1]; 50 mg/kg po dose): 8 (50.0%) h; F (oral bioavailability) [1]: 124 (28.3) %; AUCinf ([1]; 50 mg/kg po): 1586 (28.3%) h * μg/ml |
| [2H]C([2H])([2H])C(CCCCCCCCCCCCCCC(C(=O)O)(C([2H])([2H])[2H])C([2H])([2H])[2H])(C(=O)O)C([2H])([2H])[2H] [Compound 8, 2,2,17,17-Tetramethyl(D12)-octadecanedioic acid] | 99.9% | 95.1% | 60.0% | 99.9% | 94.3% | 68.7% | 99.9% | 94.1% | 56.9% | 99.9% | 96.0% | 66.8% | 99.9% | 97.2% | about 85% | 100.0% | 47.7% | No disenrichment | chemical purity (HPLC area percent) with respect to related substances ([2]; DMSO/PBS solution, 37° C.): around 95%; GC/MS IE (isotopic enrichment) [2, 6]: 99.9% |
